Data set [1] is described as follows: Metabolic stability in Sprague-Dawley rat liver microsomes at 5 uM after 20 mins. As to conditions: read-out: Stability; call rule not given here. The class given is ADME.
The nature of data set [2]: Metabolic stability in Swiss CD1 mouse liver microsomes at 5 uM after 20 mins. Type of data set: ADME, Microsome. As to conditions: read-out: Stability.
Data set [3] is described as follows: Metabolic stability in human liver microsomes at 5 uM after 20 mins. Type of data set: ADME. As to conditions: read-out: Stability.
For the next data set, the system named is Liver microsome. Briefly: Drug metabolism in human liver microsomes assessed as oxidation. The class given is ADME.
A short description of data set [4]: Permeability of the compound across human Caco2 cells. Type of data set: ADME, cell-based. The settings on record: Caco-2, read-out: permeability.
Data set [5] can be described thus: Oral bioavailability in dog at 10 mg/kg. The class given is ADME, organism-based, Canis lupus familiaris. The settings on record: in vivo.
The nature of data set [6]: Half life in dog at 10 mg/kg, po. As to conditions: in vivo. Type of data set: ADME, organism-based, Canis lupus familiaris. On the set-up: dose 10 mg/kg, route oral.
Data set [7] in a line: Cmax in dog at 10 mg/kg, po. The class given is ADME, organism-based, Canis lupus familiaris. The arrangement: dose 10 mg/kg, route oral. As to conditions: in vivo.
A short description of data set [8]: AUC in dog at 10 mg/kg, po. Type of data set: ADME, organism-based, Canis lupus familiaris. On the set-up: dose 10 mg/kg, route oral. The settings on record: plasma.
The nature of data set [9]: Tmax in dog at 10 mg/kg, po. The class given is ADME, organism-based, Canis lupus familiaris. The arrangement: dose 10 mg/kg, route oral. The settings on record: in vivo.
The nature of data set [10]: Half life in dog at 3 mg/kg, iv. Type of data set: ADME, organism-based, Canis lupus familiaris. The arrangement: dose 3 mg/kg, route intravenous. As to conditions: in vivo.
The nature of data set [11]: Cmax in dog at 3 mg/kg, iv. The class given is ADME, organism-based, Canis lupus familiaris. The settings on record: in vivo. The arrangement: dose 3 mg/kg, route intravenous.
The nature of data set [12]: Volume of distribution at steady state in dog at 3 mg/kg, iv. Type of data set: ADME, organism-based, Canis lupus familiaris. The arrangement: dose 3 mg/kg, route intravenous. The settings on record: in vivo, read-out: Vdss.
Data set [13] is described as follows: Clearance in dog at 3 mg/kg, iv. Type of data set: ADME, organism-based, Canis lupus familiaris. The arrangement: dose 3 mg/kg, route intravenous. The settings on record: in vivo.
Data set [14] in a line: AUC in dog at 3 mg/kg, iv. The settings on record: plasma. Type of data set: ADME, organism-based, Canis lupus familiaris. The arrangement: dose 3 mg/kg, route intravenous.
A short description of data set [15]: Oral bioavailability in Sprague-Dawley rat at 10 mg/kg. The class given is ADME, organism-based. The settings on record: in vivo.
Data set [16] in a line: Half life in Sprague-Dawley rat at 10 mg/kg, po. The class given is ADME, organism-based. On the set-up: dose 10 mg/kg, route oral. The settings on record: in vivo.
The nature of data set [17]: Cmax in Sprague-Dawley rat at 10 mg/kg, po. Type of data set: ADME, organism-based. On the set-up: dose 10 mg/kg, route oral. As to conditions: in vivo.
Data set [18] can be described thus: Tmax in Sprague-Dawley rat at 10 mg/kg, po. The arrangement: dose 10 mg/kg, route oral. The class given is ADME, organism-based. As to conditions: in vivo.
Data set [19] is described as follows: AUC in Sprague-Dawley rat at 10 mg/kg, po. Type of data set: ADME, organism-based. On the set-up: dose 10 mg/kg, route oral. The settings on record: plasma.
Data set [20] can be described thus: Half life in Sprague-Dawley rat at 3 mg/kg, iv. Type of data set: ADME, organism-based. On the set-up: dose 3 mg/kg, route intravenous. As to conditions: in vivo.
The nature of data set [21]: Volume of distribution at steady state in Sprague-Dawley rat at 3 mg/kg, iv. Type of data set: ADME, organism-based. On the set-up: dose 3 mg/kg, route intravenous. As to conditions: in vivo, read-out: Vdss.
Data set [22] in a line: Cmax in Sprague-Dawley rat at 3 mg/kg, iv. Type of data set: ADME, organism-based. The arrangement: dose 3 mg/kg, route intravenous. The settings on record: in vivo.
Data set [23] is described as follows: Clearance in Sprague-Dawley rat at 3 mg/kg, iv. As to conditions: in vivo. The arrangement: dose 3 mg/kg, route intravenous. Type of data set: ADME, organism-based.
A short description of data set [24]: AUC in Sprague-Dawley rat at 3 mg/kg, iv. The class given is ADME, organism-based. The settings on record: plasma. The arrangement: dose 3 mg/kg, route intravenous.

Structures are written as SMILES.

As for `CCc1c(N2CCOCC2=O)cccc1S(=O)(=O)N[C@@H](CNC(=O)c1ccc(Cl)s1)C(=O)N1CCC(OC)CC1`, the remaining at 20 min, 5 µM in data set [1] came out at 99%; in data set [2], 98%; in [3], 99%.

Turning to `Cc1c(N2CCOCC2=O)cccc1S(=O)(=O)N[C@@H](CNC(=O)c1ccc(Cl)s1)C(=O)N1CCN(C)CC1`, the remaining at 20 min, 5 µM in data set [1] was determined as 0%; in [2] it was 26%; in data set [3], 52%.

Take `CCc1c(-c2ccccn2)cccc1S(=O)(=O)N[C@@H](CNC(=O)c1ccc(Cl)s1)C(=O)N1CCOC[C@@H]1C`: in the data set with Liver microsome, the Drug metabolism result was “Active”. The remaining at 20 min, 5 µM in [1] was 65%; in data set [2], 99%; in data set [3], 99%.

`CN1CCN(C(=O)[C@H](CNC(=O)c2ccc(Cl)s2)NS(=O)(=O)c2cccc(N3CCOCC3=O)c2Cl)CC1`: the figures for the remaining at 20 min, 5 µM in data set [1], in [2] and in data set [3] were 63%, 69% and 72%, respectively.

As for `CN1CCN(C(=O)[C@H](CNC(=O)c2ccc(Cl)s2)NS(=O)(=O)c2cccc(N3CCCC3=O)c2Cl)CC1`, the remaining at 20 min, 5 µM in [1] was found to be 54%; in data set [2] it was 45%; in data set [3], 59%.

Turning to `Cc1c(-c2ccccn2)cccc1S(=O)(=O)N[C@@H](CCCc1ccc(N)cn1)C(=O)N1CCC(=C(F)F)CC1`, in data set [4], the Papp was 9.6 ×10⁻⁶ cm/s.

Take `Cc1c(N2CCCC2=O)cccc1S(=O)(=O)N[C@@H](CNC(=O)c1ccc(Cl)s1)C(=O)N1CCN(C)CC1.Cl`: the figures for the bioavailability in data set [5] and in [15] were 47% and 21%, respectively. Moreover, the half-life in data set [6] is 2.4 h; in [10], 1.1 h; in [16], 6.2 h; in [20], 6.6 h. Further, the Cmax was determined as 1530 ng/mL in data set [7], 3500 ng/mL in data set [11], 154 ng/mL in data set [17] and 1300 ng/mL in data set [22]. The area under the curve (AUC) in [8] was 2600 ng·h/mL; in [14], 1800 ng·h/mL; in [19] it was 360 ng·h/mL; in data set [24] it was 510 ng·h/mL. The results for the Tmax in data set [9] and in [18] were 0.5 h and 0.25 h, respectively. Moreover, the figures for the Vd in [12] and in [21] were 1.5 L/kg and 4.6 L/kg, respectively. In addition, the clearance in data set [13] was 28.3 mL/min/kg; in data set [23], 96.7 mL/min/kg. In addition, the remaining at 20 min, 5 µM in [1] came out at 25%; in data set [2], 25%; in data set [3] it was 34%.

As to `O=C(NC[C@H](NS(=O)(=O)c1cccc(N2CCOCC2=O)c1Cl)C(=O)N1CCC(O)CC1)c1ccc(Cl)s1`, the remaining at 20 min, 5 µM stood at 58% in data set [1], 18% in [2] and 38% in [3].

On to `CCc1c(N2CCOCC2=O)cccc1S(=O)(=O)N[C@@H](CNC(=O)c1ccc(Cl)s1)C(=O)N1CCOC[C@@H]1C`, for which the remaining at 20 min, 5 µM in data set [1], in data set [2] and in data set [3] was 99% in each case.

For the compound `Cc1c(N2CCOCC2=O)cccc1S(=O)(=O)N[C@@H](CNC(=O)c1ccc(Cl)s1)C(=O)N1CCOC[C@@H]1C`, the results for the remaining at 20 min, 5 µM in data set [1], in data set [2] and in data set [3] were 58%, 91% and 74%, respectively.

For `CCc1c(N2CCOCC2=O)cccc1S(=O)(=O)N[C@@H](CNC(=O)c1ccc(Cl)s1)C(=O)N1CCC(O)CC1`, the results for the remaining at 20 min, 5 µM in data set [1], in data set [2] and in data set [3] were 51%, 68% and 80%, respectively.

These data come from ChEMBL document CHEMBL3091444, “5-Chlorothiophene-2-carboxylic acid [(S)-2-[2-methyl-3-(2-oxopyrrolidin-1-yl)benzenesulfonylamino]-3-(4-methylpiperazin-1-yl)-3-oxopropyl]amide (SAR107375), a selective and potent orally active dual thrombin and factor Xa inhibitor” (J Med Chem, 2013).
